Biological target: T1, hSK3 channels (Homo sapiens, UniProt Q9UGI6)
T1 construct: expressed in transfected cells; host or cells: HEK293
Assay: Whole-cell patch-clamp recording of ionic current through SK channels (subtype 3) in HEK293 cells expressing hSK3
Assay type: cell-based
Conditions: baseline current at -75 mV, free Ca2+ 0.3-0.4 μM, room temperature
Description: The ionic current through small-conductance Ca^2+-activated K^+ channels (SK channels, subtype 3) is recorded using the whole-cell configuration of the patch-clamp technique.
HEK293 tissue culture cells expressing hSK3 channels were grown in DMEM (Dulbecco's Modified Eagle Medium) supplemented with 10% FCS (foetal calf serum) at 37° C. in 5% CO2. At 60-80% confluency, cells were harvested by trypsin treatment and seeded on cover slips.
Experiments are carried out on one of several patch-clamp set-ups. Cells plated on coverslips are placed in a 15 μl perfusion chamber (flowrate ˜1 ml/min) mounted on an IMT-2 microscope. The microscopes are placed on vibration-free tables in grounded Faraday cages. All experiments are performed at room temperature (20-22° C.). EPC-9 patch-clamp amplifiers (HEKA-electronics, Lambrect, Germany) are connected to Macintosh computers via ITC16 interfaces. Data are stored directly on the hard-disk and analysed by IGOR software (Wavemetrics, Lake Oswega, Oreg., USA).
The whole-cell configuration of the patch-clamp technique is applied. In short: The tip of a borosilicate pipette (resistance 2-4 MΩ) is gently placed on the cell membrane using remote control systems. Light suction results in the formation of a giga seal (pipette resistance increases to more than […]) and the cell membrane underneath the pipette is then ruptured by more powerful suction. Cell capacitance is electronically compensated and the resistance between the pipette and the cell interior (the series resistance, Rs) is measured and compensated for. Usually the cell capacitance ranges from 5 to 20 pF (depending on cell size) and the series resistance is in the range 3 to 6 MΩ. Rs—as well as capacitance compensation are updated during the experiments (before each stimulus). All experiments with drifting Rs-values are discharged. Leak-subtractions are not performed.
The extracellular (bath) solution contains (in mM): 154 mM KCl, 0.1 CaCl2, 3 MgCl2, 10 HEPES (pH=7.4 with HCl). The test compound was dissolved 1000 times in DMSO from a concentrated stock solution and then diluted in the extracellular solution.
The intracellular (pipette) solution contained: 154 mM KCl, 10 mM HEPES, 10 mM EGTA. Concentrations of CaCl2 and MgCl2 needed to obtain the desired free concentrations of Ca^2+ (0.3-0.4 μM, Mg^2+ always 1 mM) were calculated by EqCal software (Cambridge, UK) and added.
After establishment of the whole-cell configuration, voltage-ramps (normally −80 to +80 mV) are applied to the cell every 5 seconds from a holding potential of 0 mV. […] Active compounds are quantified by calculating the change in baseline current at −75 mV. […]

The SC100 (Stimulating Concentration required for increasing the baseline current by 100%) [µM] | SMILES
0.03 | Cc1cc(C)n(-c2cccc(Nc3ccc(Cl)cc3)n2)n1 [Compound A1, (4-Chloro-phenyl)-[6-(3,5-dimethyl-pyrazol-1-yl)-pyridin-2-yl]-amine]
0.3 | Clc1ccc(Nc2cccc(-n3cccn3)n2)c(Cl)c1 [Compound A8, (2,4-Dichloro-phenyl)-(6-pyrazol-1-yl-pyridin-2-yl)-amine]
0.4 | Cc1cc(C)n(-c2cccc(Nc3ccc(F)c(F)c3)n2)n1 [Compound C4, (3,4-Difluoro-phenyl)-[6-(3,5-dimethyl-pyrazol-1-yl)-pyridin-2-yl]-amine]
0.1 | CNc1cc(-n2nc(C)cc2C)nc(Nc2ccc(Cl)cc2)c1N [Compound D1, 3-Amino-2-(4-chlorophenylamino)-6-(3,5-dimethylpyrazol-1-yl)-4-methylamino-pyridine]
